The numbers were not newly measured in patent US10485764B2, “Lyophilized pharmaceutical compositions” (Otsuka Pharmaceutical Co., Ltd., priority 2015, dated 2019), which cites them from elsewhere.

This series has as its system HDAC. The conditions noted are these: in vitro or in vivo, from literature.
Take `C/C=C1\NC(=O)[C@H]2CSSCC/C=C/[C@H](CC(=O)N[C@H](C(C)C)C(=O)N2)OC(=O)[C@H](C(C)C)NC1=O` [FR901228]: the HDAC inhibition entry is recorded as “micromolar concentrations”.
As for depudecin, the HDAC inhibition result is reported as “micromolar concentrations”.
Turning to `O=C(/C=C/c1cccc(C(=O)NO)c1)NO` [CBHA, m-carboxy-cinnamic acid bishydroxamic acid], the HDAC inhibition entry is given as “micromolar concentration or lower”.
Consider trichostatin A [TSA], for which the HDAC inhibition entry is “potent inhibitor of mammalian HDAC”.
